Results published in patent US9670231B2, “Fused tricyclic amide compounds as multiple kinase inhibitors” (BEIGENE, LTD., priority 2013, dated 2017).
Where two headings read alike, the source gives them in different places.

Tests used:
Format in all cases: biochemical
B-Raf (V600E) = B-Raf (V600E) (Homo sapiens (Human), UniProt P15056, V600E); test: Raf IC50 assay, TR-FRET, B-Raf (V600E); conditions: 0.1 mM ATP; read-out: IC50 BRAF-V600E
C-Raf (Y340D/Y341D) = C-Raf (Y340D/Y341D) (Homo sapiens (Human), UniProt P04049, Y340D/Y341D); test: Raf IC50 assay, TR-FRET, C-Raf (Y340D/Y341D); conditions: 0.1 mM ATP
Method: Compounds disclosed herein were tested against B-Raf (V600E) (PV3849, from Invitrogen) or C-Raf (Y340D/Y341D) (PV3805, from Invitrogen) in a time-resolved fluorescence energy transfer assay. The assay was carried out in reactions (10 μL) containing 0.0625 nM B-Raf or 0.5 nM C-Raf, 25 mM Tris pH7.4, 10 mM MgCl2, 0.5 mM EGTA, 0.5 mM Na3VO4, 5 mM beta-glycerophosphate, 0.01% Triton X-100, 2.5 mM DTT, 0.1% BSA, 0.1 mM ATP, 13.7 nM GST-tagged MEK1 (Full-length protein with K97R mutation, recombinant protein purified from bacterial expression system) and 0-5 μM compounds disclosed herein (final concentration of 1% DMSO). The enzyme was incubated with the compounds disclosed herein at room temperature for 60 minutes and the reactions were initiated by the addition of ATP and GST-MEK1. After reaction at room temperature for 60 minutes, an equal volume of stop/detection solution was added according to the manufacture's instruction (CisBio Bioassays). The stop/detection solution contained Eu^3+ cryptate-conjugated anti-phospho MEK1/2 (Ser217/221) rabbit polyclonal antibody and d2-conjugated anti-GST mouse monoclonal antibody in buffer containing 25 mM Tris pH7.4, 400 mM KF, 50 mM EDTA, 0.01% BSA and 0.01% Triton X-100. Plates were sealed and incubated at room temperature for 2 hours, and the TR-FRET signals (ratio of fluorescence emission at 665 nm over emission at 620 nm with excitation at 337 nm wavelength) were recorded on a PHERAstar FS plate reader (BMG Labtech). Phosphorylation of MEK1 led to the binding of anti-phospho-MEK1/2 antibody to GST-MEK1 protein that place fluorescent donor (Eu^3+ crypate) in close proximity to the accepter d2 on the anti-GST antibody, thus resulting in a high degree of fluorescence resonance energy transfer from the donor fluorophore (at 620 nm) to the acceptor fluorophore (at 665 nm). […] The IC50 for each compound was derived from fitting the dose-response % inhibition data to the four-parameter logistic model by Graphpad Prism software.

wild type B-Raf = wild type B-Raf (Homo sapiens (Human), UniProt P15056); test: WT BRaf IC50 assay, TR-FRET
Method: WT BRaf IC50 Assay Protocol
Compounds disclosed herein were tested against wild type B-Raf (PV3848, from Invitrogen) in a time-resolved fluorescence energy transfer assay. […] The enzyme was incubated with the compounds disclosed herein at room temperature for 120 minutes and the reactions were initiated by the addition of ATP and GST-MEK1. After incubating at room temperature for 60 minutes, an equal volume of stop buffer containing 25 mM Tris pH7.4, 400 mM KF, 50 mM EDTA, 0.1% BSA, 0.01% Triton X-100, 1 test of Eu3+Cryptate-conjugated rabbit polyclonal antibody anti-Phospho MEK1/2 (Ser217/221) and 1 test of d2-conjugated mouse monoclonal antibody anti-glutathione S-transferase was added to stop the reactions. Plates were sealed and incubated at room temperature for 1.5 hours, and then the TR-FRET signals were read on BMG PHERAstar FS instrument. The IC50 for each compound was calculated by non linear regression by Graphpad Prism software.

WT EGFR kinase domain = WT EGFR kinase domain (Homo sapiens (Human), UniProt P00533); test: EGFR enzymatic assay, TR-FRET, WT EGFR
EGFR L858R kinase domain = EGFR L858R kinase domain (Homo sapiens (Human), UniProt P00533, L858R); test: EGFR enzymatic assay, TR-FRET, EGFR L858R
[1] = molecular target: EGFR T790M/L858R kinase domain (Homo sapiens (Human), UniProt P00533, L858R/T790M); test: EGFR enzymatic assay, TR-FRET, EGFR T790M/L858R
[2] = Km ATP ([…] ATP), read-out: IC50 Braf-WT Km ATP

Chain of wild type B-Raf (P15056 whole entry): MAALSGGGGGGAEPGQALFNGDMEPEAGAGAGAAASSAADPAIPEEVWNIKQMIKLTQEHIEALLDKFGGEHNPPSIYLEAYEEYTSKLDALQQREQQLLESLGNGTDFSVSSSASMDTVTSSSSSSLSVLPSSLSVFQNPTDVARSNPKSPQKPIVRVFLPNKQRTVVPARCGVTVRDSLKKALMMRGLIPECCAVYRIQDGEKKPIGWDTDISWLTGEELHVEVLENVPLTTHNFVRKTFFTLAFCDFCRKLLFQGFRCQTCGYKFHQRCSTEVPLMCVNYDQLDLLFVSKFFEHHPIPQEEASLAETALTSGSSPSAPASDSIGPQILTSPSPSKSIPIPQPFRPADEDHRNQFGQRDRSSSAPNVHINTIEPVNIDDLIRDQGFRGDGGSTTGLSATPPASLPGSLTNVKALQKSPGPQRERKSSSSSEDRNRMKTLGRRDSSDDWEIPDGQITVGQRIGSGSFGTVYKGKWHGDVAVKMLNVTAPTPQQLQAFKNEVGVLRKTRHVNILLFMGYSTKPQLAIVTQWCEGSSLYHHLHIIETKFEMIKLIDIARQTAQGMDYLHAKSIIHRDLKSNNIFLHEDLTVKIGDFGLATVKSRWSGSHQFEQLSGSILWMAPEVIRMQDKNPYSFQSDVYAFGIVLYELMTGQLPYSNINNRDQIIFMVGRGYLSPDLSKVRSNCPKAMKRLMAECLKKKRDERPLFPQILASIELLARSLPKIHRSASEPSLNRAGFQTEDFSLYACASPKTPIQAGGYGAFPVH
Chain of C-Raf (Y340D/Y341D) (P04049 whole entry Y340D/Y341D): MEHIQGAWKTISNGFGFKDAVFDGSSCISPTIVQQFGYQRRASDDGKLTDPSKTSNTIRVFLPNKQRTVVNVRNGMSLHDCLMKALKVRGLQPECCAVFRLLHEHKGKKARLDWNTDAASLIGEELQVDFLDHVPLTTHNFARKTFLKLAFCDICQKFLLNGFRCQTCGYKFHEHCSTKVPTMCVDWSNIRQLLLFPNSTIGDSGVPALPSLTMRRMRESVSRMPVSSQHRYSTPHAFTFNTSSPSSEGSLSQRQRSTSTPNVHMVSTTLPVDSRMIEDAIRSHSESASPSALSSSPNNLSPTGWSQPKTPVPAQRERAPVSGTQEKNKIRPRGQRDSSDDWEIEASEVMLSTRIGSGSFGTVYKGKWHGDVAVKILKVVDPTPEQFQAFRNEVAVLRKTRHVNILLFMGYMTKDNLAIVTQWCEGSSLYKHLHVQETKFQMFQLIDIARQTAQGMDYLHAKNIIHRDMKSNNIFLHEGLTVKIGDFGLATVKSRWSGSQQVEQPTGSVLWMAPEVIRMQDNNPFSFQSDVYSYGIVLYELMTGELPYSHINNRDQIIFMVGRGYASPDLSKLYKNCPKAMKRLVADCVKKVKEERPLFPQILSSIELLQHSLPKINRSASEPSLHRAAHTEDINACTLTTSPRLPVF
Chain of WT EGFR kinase domain (P00533 669-1210): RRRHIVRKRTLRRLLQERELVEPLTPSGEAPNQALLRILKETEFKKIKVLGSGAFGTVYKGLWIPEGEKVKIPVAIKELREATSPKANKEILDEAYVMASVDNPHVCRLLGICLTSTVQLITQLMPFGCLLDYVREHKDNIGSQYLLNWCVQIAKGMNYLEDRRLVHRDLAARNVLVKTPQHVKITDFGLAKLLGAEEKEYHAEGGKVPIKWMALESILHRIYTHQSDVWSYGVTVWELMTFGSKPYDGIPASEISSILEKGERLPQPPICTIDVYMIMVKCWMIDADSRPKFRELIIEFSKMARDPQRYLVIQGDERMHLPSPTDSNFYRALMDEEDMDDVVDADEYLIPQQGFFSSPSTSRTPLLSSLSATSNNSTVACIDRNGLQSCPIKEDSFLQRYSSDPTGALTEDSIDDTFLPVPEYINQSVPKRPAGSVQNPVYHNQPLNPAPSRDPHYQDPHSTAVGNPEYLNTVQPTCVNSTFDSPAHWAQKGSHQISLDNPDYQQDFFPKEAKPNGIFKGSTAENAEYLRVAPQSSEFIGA
Chain of EGFR T790M/L858R kinase domain (P00533 669-1210 T790M/L858R): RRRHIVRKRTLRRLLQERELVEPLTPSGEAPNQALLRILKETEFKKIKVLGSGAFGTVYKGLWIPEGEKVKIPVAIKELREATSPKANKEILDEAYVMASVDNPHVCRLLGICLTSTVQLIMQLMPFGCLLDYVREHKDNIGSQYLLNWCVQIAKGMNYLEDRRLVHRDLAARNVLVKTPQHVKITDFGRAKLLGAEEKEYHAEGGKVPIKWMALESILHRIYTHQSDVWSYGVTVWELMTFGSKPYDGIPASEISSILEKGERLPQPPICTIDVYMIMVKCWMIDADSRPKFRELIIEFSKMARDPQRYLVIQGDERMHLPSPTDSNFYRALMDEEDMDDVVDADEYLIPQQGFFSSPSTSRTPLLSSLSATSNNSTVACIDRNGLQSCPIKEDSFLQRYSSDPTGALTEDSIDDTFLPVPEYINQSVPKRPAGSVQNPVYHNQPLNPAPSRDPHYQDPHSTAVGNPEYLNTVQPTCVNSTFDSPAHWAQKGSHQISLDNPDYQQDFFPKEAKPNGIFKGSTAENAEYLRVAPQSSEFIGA
Chain of B-Raf (V600E) (P15056 whole entry V600E): as the sequence (P15056 whole entry) above, with V600E counted along it
Chain of EGFR L858R kinase domain (P00533 669-1210 L858R): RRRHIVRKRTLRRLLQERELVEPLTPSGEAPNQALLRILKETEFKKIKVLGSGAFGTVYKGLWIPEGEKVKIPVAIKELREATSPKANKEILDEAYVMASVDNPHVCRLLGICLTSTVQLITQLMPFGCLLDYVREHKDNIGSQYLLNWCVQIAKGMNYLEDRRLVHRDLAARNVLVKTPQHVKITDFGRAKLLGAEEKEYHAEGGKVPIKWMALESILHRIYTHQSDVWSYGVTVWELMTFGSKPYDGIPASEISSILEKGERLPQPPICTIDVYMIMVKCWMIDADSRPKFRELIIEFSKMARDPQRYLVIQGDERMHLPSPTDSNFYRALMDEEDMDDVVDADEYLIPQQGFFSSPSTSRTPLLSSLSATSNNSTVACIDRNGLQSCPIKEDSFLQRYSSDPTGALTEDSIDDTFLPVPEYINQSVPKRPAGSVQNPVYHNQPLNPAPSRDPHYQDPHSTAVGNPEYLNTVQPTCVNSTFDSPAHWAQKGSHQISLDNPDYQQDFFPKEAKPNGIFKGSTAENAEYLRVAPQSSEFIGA

## NC1(c2cc(C(=O)N[C@@H]3[C@H]4Oc5ccc(Oc6ccnc7c6CCC(=O)N7)cc5[C@@H]34)cc(C(F)(F)F)c2)CC1 [Compound 1.26, 3-(1-aminocyclopropyl)-N-((1S,1aS,6bS)-5-((7-oxo-5,6,7,8-tetrahydro-1,8-naphthyridin-4-yl)oxy)-1a,6b-dihydro-1H-cyclopropa[b]benzofuran-1-yl)-5-(trifluoromethyl)benzamide]
B-Raf (V600E)
  IC50: 2.2 nM
C-Raf (Y340D/Y341D)
  IC50: 0.52 nM
Wild type B-Raf; [2]
  IC50: 5.7 nM
WT EGFR kinase domain
  IC50: 1.7 nM
EGFR L858R kinase domain
  IC50: 1.3 nM
[1]
  IC50: 9.4 nM

## O=C1CCc2c(Oc3ccc4c(c3)[C@H]3[C@H](NC(=O)c5ccc(CN6CCNCC6)c(C(F)(F)F)c5)[C@H]3O4)ccnc2N1 [Compound 1.27, N-((1S,1aS,6bS)-5-((7-oxo-5,6,7,8-tetrahydro-1,8-naphthyridin-4-yl)oxy)-1a,6b-dihydro-1H-cyclopropa[b]benzofuran-1-yl)-4-(piperazin-1-ylmethyl)-3-(trifluoromethyl)benzamide]
B-Raf (V600E)
  IC50: 27.2 nM
C-Raf (Y340D/Y341D)
  IC50: 3 nM
Wild type B-Raf; IC50 Braf-WT […] ATP, […] ATP
  IC50: 120 nM
Wild type B-Raf; [2]
  IC50: 63 nM
WT EGFR kinase domain
  IC50: 1.3 nM
EGFR L858R kinase domain
  IC50: 0.31 nM
[1]
  IC50: 0.54 nM

## C[C@H]1CN(Cc2ccc(C(=O)N[C@@H]3[C@H]4Oc5ccc(Oc6ccnc7c6CCC(=O)N7)cc5[C@@H]34)cc2C(F)(F)F)CCN1 [Compound 1.29, 4-(((S)-3-methylpiperazin-1-yl)methyl)-N-((1S,1aS,6bS)-5-((7-oxo-5,6,7,8-tetrahydro-1,8-naphthyridin-4-yl)oxy)-1a,6b-dihydro-1H-cyclopropa[b]benzofuran-1-yl)-3-(trifluoromethyl)benzamide]
B-Raf (V600E)
  IC50: 6.2 nM
C-Raf (Y340D/Y341D)
  IC50: 1.1 nM
Wild type B-Raf; [2]
  IC50: 9.1 nM
WT EGFR kinase domain
  IC50: 0.61 nM
EGFR L858R kinase domain
  IC50: 0.14 nM
[1]
  IC50: 0.3 nM

## CN(C)[C@@H]1CCCN(Cc2ccc(C(=O)N[C@@H]3[C@H]4Oc5ccc(Oc6ccnc7c6CCC(=O)N7)cc5[C@@H]34)cc2C(F)(F)F)C1 [Compound 1.31, 4-(((R)-3-(dimethylamino)piperidin-1-yl)methyl)-N-((1S,1aS,6bS)-5-((7-oxo-5,6,7,8-tetrahydro-1,8-naphthyridin-4-yl)oxy)-1a,6b-dihydro-1H-cyclopropa[b]benzofuran-1-yl)-3-(trifluoromethyl)benzamide]
B-Raf (V600E)
  IC50: 15 nM
C-Raf (Y340D/Y341D)
  IC50: 0.78 nM
Wild type B-Raf; [2]
  IC50: 10 nM
WT EGFR kinase domain
  IC50: 0.99 nM
EGFR L858R kinase domain
  IC50: 0.44 nM
[1]
  IC50: 1.9 nM

## CN(C)[C@H]1CCCN(Cc2ccc(C(=O)N[C@@H]3[C@H]4Oc5ccc(Oc6ccnc7c6CCC(=O)N7)cc5[C@@H]34)cc2C(F)(F)F)C1 [Compound 1.32]
B-Raf (V600E)
  IC50: 13 nM
C-Raf (Y340D/Y341D)
  IC50: 2.5 nM
Wild type B-Raf; [2]
  IC50: 21 nM
WT EGFR kinase domain
  IC50: 1.5 nM
EGFR L858R kinase domain
  IC50: 0.47 nM
[1]
  IC50: 1.3 nM

## CCN1CCN(Cc2ccc(C(=O)N[C@H]3[C@@H]4Oc5ccc(Oc6ccnc7c6CCC(=O)N7)cc5[C@H]34)cc2C(F)(F)F)CC1 [Compound 1.33, 4-((4-ethylpiperazin-1-yl)methyl)-N-((1R,1aR,6bR)-5-((7-oxo-5,6,7,8-tetrahydro-1,8-naphthyridin-4-yl)oxy)-1a,6b-dihydro-1H-cyclopropa [b]benzofuran-1-yl)-3-(trifluoromethyl)benzamide]
B-Raf (V600E)
  IC50: 16 nM
C-Raf (Y340D/Y341D)
  IC50: 0.47 nM
Wild type B-Raf; [2]
  IC50: 35 nM
WT EGFR kinase domain
  IC50: 774 nM
EGFR L858R kinase domain
  IC50: 146 nM
[1]
  IC50: 293 nM

## O=C1CCc2c(Oc3ccc4c(c3)[C@H]3[C@H](NC(=O)c5cccc(C(F)(F)F)c5)[C@H]3O4)ccnc2N1 [Compound 1.35]
B-Raf (V600E)
  IC50: 1.2 nM
C-Raf (Y340D/Y341D)
  IC50: 0.33 nM
Wild type B-Raf; IC50 Braf-WT […] ATP, […] ATP
  IC50: 12 nM
Wild type B-Raf; [2]
  IC50: 4.4 nM
WT EGFR kinase domain
  IC50: 18 nM
EGFR L858R kinase domain
  IC50: 9.7 nM
[1]
  IC50: 47 nM

## O=C1CCc2c(Oc3ccc4c(c3)[C@H]3[C@H](NC(=O)c5cccc(F)c5)[C@H]3O4)ccnc2N1 [Compound 1.39]
B-Raf (V600E)
  IC50: 0.76 nM
C-Raf (Y340D/Y341D)
  IC50: 0.15 nM
Wild type B-Raf; [2]
  IC50: 0.9 nM
WT EGFR kinase domain
  IC50: 75 nM
EGFR L858R kinase domain
  IC50: 30 nM
[1]
  IC50: 692 nM

## O=C1CCc2c(Oc3ccc4c(c3)[C@H]3[C@H](NC(=O)c5ccc(C(F)(F)F)cc5)[C@H]3O4)ccnc2N1 [Compound 1.40]
B-Raf (V600E)
  IC50: 8.1 nM
C-Raf (Y340D/Y341D)
  IC50: 0.64 nM
Wild type B-Raf; [2]
  IC50: 5.7 nM
WT EGFR kinase domain
  IC50: 13 nM
EGFR L858R kinase domain
  IC50: 12 nM
[1]
  IC50: 84 nM

## CC(C)(C#N)c1cccc(C(=O)N[C@@H]2[C@H]3Oc4ccc(Oc5ccnc6c5CCC(=O)N6)cc4[C@@H]23)c1 [Compound 1.43]
B-Raf (V600E)
  IC50: 4.1 nM
C-Raf (Y340D/Y341D)
  IC50: 0.34 nM
Wild type B-Raf; [2]
  IC50: 4.4 nM
WT EGFR kinase domain
  IC50: 13 nM
EGFR L858R kinase domain
  IC50: 11 nM
[1]
  IC50: 38 nM

## CN(C)[C@H]1CCCN(c2ccc(C(=O)N[C@@H]3[C@H]4Oc5ccc(Oc6ccnc7c6CCC(=O)N7)cc5[C@@H]34)cc2C(F)(F)F)C1 [Compound 1.47, 4-((S)-3-(dimethylamino)piperidin-1-yl)-N-((1S,1aS,6bS)-5-((7-oxo-5,6,7,8-tetrahydro-1,8-naphthyridin-4-yl)oxy)-1a,6b-dihydro-1H-cyclopropa[b]benzofuran-1-yl)-3-(trifluoromethyl)benzamide]
B-Raf (V600E)
  IC50: 10 nM
C-Raf (Y340D/Y341D)
  IC50: 1.2 nM
Wild type B-Raf; [2]
  IC50: 8.5 nM
WT EGFR kinase domain
  IC50: 1.4 nM
EGFR L858R kinase domain
  IC50: 0.39 nM
[1]
  IC50: 6.6 nM

## CN1CCN(c2ccc(C(=O)N[C@@H]3[C@H]4Oc5ccc(Oc6ccnc7c6CCC(=O)N7)cc5[C@@H]34)cc2C(F)(F)F)CC1 [Compound 1.49]
B-Raf (V600E)
  IC50: 9.5 nM
C-Raf (Y340D/Y341D)
  IC50: 2.6 nM
Wild type B-Raf; [2]
  IC50: 13 nM
WT EGFR kinase domain
  IC50: 5.1 nM
EGFR L858R kinase domain
  IC50: 4.6 nM
[1]
  IC50: 38 nM

## CCN1CCN(Cc2ccc(C(=O)N[C@@H]3[C@H]4Oc5ccc(Oc6ccnc7c6COC(=O)N7)cc5[C@@H]34)cc2C(F)(F)F)CC1 [Compound 2.1, 4-((4-ethylpiperazin-1-yl)methyl)-N-((1S,1aS,6bS)-5-((2-oxo-2,4-dihydro-1H-pyrido[2,3-d][1,3]oxazin-5-yl)oxy)-1a,6b-dihydro-1H-cyclopropa[b]benzofuran-1-yl)-3-(trifluoromethyl)benzamide]
B-Raf (V600E)
  IC50: 16 nM
C-Raf (Y340D/Y341D)
  IC50: 2.3 nM
Wild type B-Raf; [2]
  IC50: 15 nM
WT EGFR kinase domain
  IC50: 1.8 nM
EGFR L858R kinase domain
  IC50: 0.38 nM
[1]
  IC50: 0.25 nM

## CCN1CCN(Cc2ccc(C(=O)N[C@@H]3[C@H]4Oc5ccc(Oc6ccnc(C(=O)NC)c6)cc5[C@@H]34)cc2C(F)(F)F)CC1 [Compound 2.3, 4-(((1S,1aS,6bS)-1-(4-((4-ethylpiperazin-1-yl)methyl)-3-(trifluoromethyl)benzamido)-1a,6b-dihydro-1H-cyclopropa[b]benzofuran-5-yl)oxy)-N-methylpicolinamide]
B-Raf (V600E)
  IC50: 54 nM
C-Raf (Y340D/Y341D)
  IC50: 12 nM
Wild type B-Raf; [2]
  IC50: 52 nM
WT EGFR kinase domain
  IC50: 7.1 nM
EGFR L858R kinase domain
  IC50: 4.7 nM
[1]
  IC50: 22 nM
